How the values were obtained:
Test in all cases: relative viability (nuclei count vs DMSO), 5 days (fraction); higher = more cells survive
[1] = compound: C#Cc1cccc(Nc2ncnc3cc(OCCOC)c(OCCOC)cc23)c1 [Erlotinib] + Cc1cc(Nc2cc(N3CCN(C)CC3)nc(Sc3ccc(NC(=O)C4CC4)cc3)n2)n[nH]1 [Tozasertib] (partner 0.1 µM)
How it was run: (§1)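 Values are medians from duplicate plates. Each reflects relative viability, defined as the nuclei count of treated wells over that of vehicle wells. Lung cancer cell lines in 1536-well plates were pin-tool dosed one day after seeding with one drug alone or with a fixed anchor-drug dose plus five library-drug doses (not always all listed) in √10 steps, then fixed, stained and imaged at 4× after 5 days.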

[2] = compound: C#Cc1cccc(Nc2ncnc3cc(OCCOC)c(OCCOC)cc23)c1 [Erlotinib] + N=C(N)NC(=N)NCCc1ccccc1 [Phenformin] (partner 250 µM)
How it was run: as §1

[3] = compound: O=C(Nc1c[nH]nc1-c1nc2ccc(CN3CCOCC3)cc2[nH]1)NC1CC1 [AT9283] + C[C@@H](Oc1cc(-c2cnn(C3CCNCC3)c2)cnc1N)c1c(Cl)ccc(F)c1Cl [Crizotinib] (partner 1 µM)
How it was run: as §1

[4] = compound: O=C(Nc1c[nH]nc1-c1nc2ccc(CN3CCOCC3)cc2[nH]1)NC1CC1 [AT9283] + Cc1cc(Nc2cc(N3CCN(C)CC3)nc(Sc3ccc(NC(=O)C4CC4)cc3)n2)n[nH]1 [Tozasertib] (partner 0.1 µM)
How it was run: as §1

[5] = compound: O=C(Nc1c[nH]nc1-c1nc2ccc(CN3CCOCC3)cc2[nH]1)NC1CC1 [AT9283] + Nc1nc2[nH]cc(CCc3ccc(C(=O)N[C@@H](CCC(=O)O)C(=O)O)cc3)c2c(=O)[nH]1 [Pemetrexed] (partner 0.2 µM)
How it was run: as §1

Cell Line	relative viability ([1]; first compound 0.02 µM)	relative viability ([1]; first compound 0.2 µM)	relative viability ([1]; first compound 0.6325 µM)	relative viability ([1]; first compound 2 µM)	relative viability ([2]; first compound 0.02 µM)	relative viability ([2]; first compound 0.2 µM)	relative viability ([2]; first compound 0.6325 µM)	relative viability ([2]; first compound 2 µM)	relative viability ([3]; first compound 0.003 µM)	relative viability ([3]; first compound 0.03 µM)	relative viability ([3]; first compound 0.09487 µM)	relative viability ([3]; first compound 0.3 µM)	relative viability ([4]; first compound 0.003 µM)	relative viability ([4]; first compound 0.03 µM)	relative viability ([4]; first compound 0.09487 µM)	relative viability ([4]; first compound 0.3 µM)	relative viability ([5]; first compound 0.003 µM)	relative viability ([5]; first compound 0.03 µM)	relative viability ([5]; first compound 0.09487 µM)	relative viability ([5]; first compound 0.3 µM)
HCC-78	0.407	0.289	0.385	0.402	0.657	0.681	0.684	0.531	0.328	0.272	0.213	0.189	0.501	0.354	0.267	0.291	0.905	0.896	0.924	0.919
HCC-366	0.0918	0.0854	0.0664	0.039	0.599	0.661	0.601	0.567	0.547	0.179	0.105	0.0338	0.127	0.438	0.0615	0.0586	0.169	0.2	0.101	0.067
HCC-827	0.223	0.114	0.101	0.126	0.232	0.144	0.139	0.133	0.91	0.808	0.41	0.283	0.409	0.374	0.337	0.257	0.281	0.247	0.236	0.207
HOP-62	0.405	0.409	0.411	0.26	0.726		0.711	0.689	1.13	0.747	0.285	0.167	0.34	0.263	0.213	0.265	0.439	0.192	0.144	0.153
IA-LM									0.846	0.261	0.0839	0.132								
LC-2-ad	0.484	0.383	0.414	0.345	0.566	0.643	0.592	0.534	0.44	0.275	0.288	0.238	0.422	0.285	0.321	0.25	0.258	0.253	0.219	0.164
LCLC-97TM1	0.285	0.204	0.203	0.172	0.405	0.412	0.439	0.379	0.273	0.157	0.128	0.121	0.199	0.123	0.18	0.181	0.19	0.134	0.0995	0.0907
LCLC-103H	0.434	0.48	0.595	0.313	0.335	0.347	0.356	0.289	1.04	0.963	0.932	0.5	0.45	0.347	0.187	0.259	0.447	0.411	0.343	0.324
LK-2	0.196	0.17	0.157	0.158	0.623	0.275	0.513	0.39	0.255	0.218	0.241	0.251	0.174	0.225	0.172	0.209	0.196	0.135	0.136	0.105
NCI-H522	0.493	0.573	0.508	0.465	0.602	0.615	0.691	0.612					0.545	0.576	0.56	0.557	0.949	0.78	0.746	0.499
NCI-H727	0.616	0.51	0.493	0.424	0.572		0.639	0.404	0.813	0.461	0.27	0.323	0.589	0.567	0.457	0.444				
NCI-H1299									1.01	0.475	0.339	0.346								
NCI-H1395	0.837	0.772	0.712	0.566	0.503	0.462	0.483	0.463					0.61	0.553	0.399	0.355	0.799	0.764	0.322	0.34
NCI-H1563					0.63	0.602	0.708	0.6	0.955	0.713	0.686	0.658					0.751	0.66	0.559	0.513
NCI-H1623	0.437	0.315	0.29	0.209	0.559	0.528	0.227	0.264					0.411	0.408	0.357	0.389				
NCI-H1648	0.489	0.434	0.555	0.252									0.456	0.343	0.329	0.258	0.579	0.553	0.493	0.386
NCI-H1703									0.694	0.401	0.211	0.225								
NCI-H1792					0.24	0.219	0.207	0.186	0.933	0.993	0.984	0.811					0.783	0.945	0.805	0.167
NCI-H1793	0.307	0.258	0.235	0.161	0.344	0.335	0.287	0.243					0.327	0.383	0.201	0.171	0.876	1.07	0.355	0.306
NCI-H2342	0.444	0.495	0.491	0.361	0.532	0.671	0.572	0.433					0.555	0.453	0.403	0.344	0.793	0.619	0.603	0.387
SW 900	0.514	0.487	0.33	0.257	0.55	0.565	0.679	0.487					0.476	0.526	0.359	0.307	0.326	0.468	0.423	0.32

Source: the supplement of paper PMC10307832
